{
  "source": "paper PMC7818652",
  "about": "(ACS Catalysis, 2020)",
  "experiment_in_all_cases": "steady-state kinetics, DCIP reduction (spectrophotometric)",
  "format_in_all_cases": "biochemical, Neurospora crassa",
  "conditions_in_all_cases": "2,6-dichloroindophenol as saturating co-substrate; pH 6.0 citrate-phosphate; 30 °C",
  "key": {"CDHAAB": {"test_system": "T1, CDHAAB", "T1 construct": "gene cdhIIB; single fused chain: CYT and linker of NcCDHIIA + DH of NcCDHIIB, no CBM1; expressed in Pichia pastoris KM71H; with Cellobiose dehydrogenase", "excerpt": "steady-state kinetics, DCIP reduction (spectrophotometric) on CDHAAB"}, "CDHABB": {"test_system": "T2, CDHABB", "T2 construct": "gene cdhIIB; single fused chain: CYT of NcCDHIIA + linker and DH of NcCDHIIB, no CBM1; expressed in Pichia pastoris KM71H; with Cellobiose dehydrogenase", "excerpt": "steady-state kinetics, DCIP reduction (spectrophotometric) on CDHABB"}, "CDHBBA": {"test_system": "T3, CDHBBA", "T3 construct": "gene cdhIIA; single fused chain: CYT and linker of NcCDHIIB + DH and CBM1 of NcCDHIIA; expressed in Pichia pastoris KM71H; with Cellobiose dehydrogenase", "excerpt": "steady-state kinetics, DCIP reduction (spectrophotometric) on CDHBBA"}, "CDHBAA": {"test_system": "T4, CDHBAA", "T4 construct": "gene cdhIIA; single fused chain: CYT of NcCDHIIB + linker, DH and CBM1 of NcCDHIIA; expressed in Pichia pastoris KM71H; with Cellobiose dehydrogenase", "excerpt": "steady-state kinetics, DCIP reduction (spectrophotometric) on CDHBAA"}},
  "data": [
    {"molecule": "OC[C@H]1O[C@@H](O[C@H]2[C@H](O)[C@@H](O)C(O)O[C@@H]2CO)[C@H](O)[C@@H](O)[C@@H]1O", "note": "(stereo partly shown) [cellobiose]", "values": [
      {"measurement": "Km", "setting": "CDHAAB", "result": "46 ± 3", "unit": "µM"},
      {"measurement": "Km", "setting": "CDHABB", "result": "26 ± 3", "unit": "µM"},
      {"measurement": "Km", "setting": "CDHBBA", "result": "75 ± 5", "unit": "µM"},
      {"measurement": "Km", "setting": "CDHBAA", "result": "57 ± 6", "unit": "µM"}
    ]}
  ]
}
